Our source for the Ki values is BindingDB's records for PubMed 11303071 (Banyu Pharmaceutical, 2001).

Experiment [1] has as its target T1, Muscarinic acetylcholine receptor M5 (Homo sapiens, UniProt P08912).
T1 sequence (P08912 whole entry): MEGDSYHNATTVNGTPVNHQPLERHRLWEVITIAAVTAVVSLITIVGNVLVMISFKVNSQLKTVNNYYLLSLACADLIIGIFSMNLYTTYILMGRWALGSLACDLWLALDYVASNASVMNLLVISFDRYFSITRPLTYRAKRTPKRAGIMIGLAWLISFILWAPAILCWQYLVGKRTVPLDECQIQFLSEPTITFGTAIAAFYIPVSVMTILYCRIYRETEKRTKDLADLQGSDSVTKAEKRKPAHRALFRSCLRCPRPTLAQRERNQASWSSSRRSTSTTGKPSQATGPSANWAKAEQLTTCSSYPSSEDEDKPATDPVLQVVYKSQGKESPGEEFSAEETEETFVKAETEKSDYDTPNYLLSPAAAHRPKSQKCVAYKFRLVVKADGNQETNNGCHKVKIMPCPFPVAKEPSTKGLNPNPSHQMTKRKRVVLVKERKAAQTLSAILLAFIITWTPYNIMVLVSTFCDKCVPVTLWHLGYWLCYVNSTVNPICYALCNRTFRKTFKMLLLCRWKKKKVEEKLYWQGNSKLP

Experiment [2] concerns the target T2, Muscarinic acetylcholine receptor M2 (Homo sapiens, UniProt P08172).
T2 sequence (P08172 whole entry): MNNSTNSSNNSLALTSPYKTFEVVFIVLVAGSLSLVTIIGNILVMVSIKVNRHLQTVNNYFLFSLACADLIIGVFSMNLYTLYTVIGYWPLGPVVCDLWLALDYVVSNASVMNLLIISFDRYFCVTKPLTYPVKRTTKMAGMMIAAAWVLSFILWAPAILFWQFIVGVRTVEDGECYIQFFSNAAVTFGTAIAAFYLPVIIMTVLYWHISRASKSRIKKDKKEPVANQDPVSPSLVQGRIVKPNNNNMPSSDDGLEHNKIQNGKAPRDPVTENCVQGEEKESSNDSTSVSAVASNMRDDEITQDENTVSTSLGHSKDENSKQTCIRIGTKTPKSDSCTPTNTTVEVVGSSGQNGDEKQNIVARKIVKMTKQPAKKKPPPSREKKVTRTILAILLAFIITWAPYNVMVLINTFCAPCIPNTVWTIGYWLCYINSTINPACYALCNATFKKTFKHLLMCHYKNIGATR

Experiment [3] addresses T3, Muscarinic acetylcholine receptor M4 (Homo sapiens, UniProt P08173).
T3 sequence (P08173 whole entry): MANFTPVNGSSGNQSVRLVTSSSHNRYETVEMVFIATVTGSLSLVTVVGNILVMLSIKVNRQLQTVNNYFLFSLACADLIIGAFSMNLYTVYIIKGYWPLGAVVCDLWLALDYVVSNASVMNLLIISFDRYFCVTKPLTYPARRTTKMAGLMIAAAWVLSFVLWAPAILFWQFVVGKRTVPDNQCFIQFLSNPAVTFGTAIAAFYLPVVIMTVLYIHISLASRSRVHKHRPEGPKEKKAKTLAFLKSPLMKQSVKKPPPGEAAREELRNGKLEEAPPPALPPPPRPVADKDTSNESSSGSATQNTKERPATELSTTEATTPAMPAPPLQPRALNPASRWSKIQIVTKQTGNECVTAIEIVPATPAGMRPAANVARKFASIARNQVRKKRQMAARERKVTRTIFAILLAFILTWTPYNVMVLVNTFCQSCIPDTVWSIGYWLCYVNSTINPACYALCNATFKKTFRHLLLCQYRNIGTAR

The target of experiment [4] is Muscarinic acetylcholine receptor M3 (Rattus norvegicus, UniProt P08483).

Structures are written as SMILES.

For orientation: Ki means the dissociation constant of the complex between target and ligand, obtained from inhibition or displacement. High values mean a looser hold on the target, low ones a stronger hold on the target.

Chain of Muscarinic acetylcholine receptor M3 (P08483 whole entry): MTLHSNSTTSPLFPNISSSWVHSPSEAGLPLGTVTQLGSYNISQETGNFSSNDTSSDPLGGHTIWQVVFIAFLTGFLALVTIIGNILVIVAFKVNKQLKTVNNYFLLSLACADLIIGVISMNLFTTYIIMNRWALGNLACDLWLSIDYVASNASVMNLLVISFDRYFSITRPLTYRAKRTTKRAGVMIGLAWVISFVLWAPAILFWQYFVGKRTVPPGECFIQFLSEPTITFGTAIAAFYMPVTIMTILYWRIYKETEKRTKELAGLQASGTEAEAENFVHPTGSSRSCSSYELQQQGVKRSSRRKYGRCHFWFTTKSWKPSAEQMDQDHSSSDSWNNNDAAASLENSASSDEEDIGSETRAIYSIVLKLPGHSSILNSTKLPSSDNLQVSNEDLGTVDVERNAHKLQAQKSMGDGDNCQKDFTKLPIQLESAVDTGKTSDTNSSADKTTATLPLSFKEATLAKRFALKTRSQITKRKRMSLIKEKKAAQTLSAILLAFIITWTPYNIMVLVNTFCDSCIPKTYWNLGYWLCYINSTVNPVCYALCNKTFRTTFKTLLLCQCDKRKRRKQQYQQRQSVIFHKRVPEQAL

Consider `NC1=COC=C(CN2CCC(NC(=O)[C@](O)(c3ccccc3)[C@@H]3CCC(F)(F)C3)CC2)N1` [Compound A], for which the Ki in experiment [1] was 7.7 nM; in experiment [2], 540 nM; in experiment [3], 15 nM; in experiment [4], 2.6 nM.

Turning to `NC(=O)C(c1ccccc1)(c1ccccc1)[C@@H]1CCN(CCc2ccc3c(c2)CCO3)C1` [Enablex], the figures for the Ki in experiment [1] and in experiment [3] were 2.3 nM and 8.6 nM, respectively.
